Results as given in PubChem BioAssay (NCI).
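Abbreviation: GI50, concentration required for 50% inhibition of growth. TGI: concentration producing complete growth inhibition.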

Columns and labels:
Assay in all cases: growth of human tumour cells (NCI), 384-well format
[1] = tested on: SNB-19 CNS
[2] = tested on: HCC-2998 colon
[3] = tested on: HCT-15 colon
[4] = tested on: ACHN renal
[5] = tested on: UACC-257 melanoma
[6] = tested on: MOLT-4 leukemia
[7] = tested on: HOP-62 NSCLC
[8] = tested on: NCI-H322M lung
[9] = tested on: SW-620 colon
[10] = tested on: HT29 colon
[11] = tested on: SN12C renal
[12] = tested on: SK-MEL-5 melanoma
[13] = tested on: IGROV1 ovarian
[14] = tested on: NCI/ADR-RES ovarian
[15] = tested on: MCF7 breast
[16] = tested on: HS 578T breast
[17] = tested on: CCRF-CEM leukemia
[18] = tested on: RPMI-8226 leukemia
[19] = tested on: MALME-3M melanoma
[20] = tested on: MDA-MB-435 melanoma
[21] = tested on: OVCAR-5 ovarian
[22] = tested on: A549 NSCLC
[23] = tested on: MDA-MB-231 breast
[24] = tested on: OVCAR-3 ovarian
[25] = tested on: SK-MEL-2 melanoma
[26] = tested on: SR leukemia
[27] = tested on: SF-539 CNS
[28] = tested on: KM12 colon
[29] = tested on: 786-0 renal
[30] = tested on: NCI-H460 NSCLC
[31] = tested on: NCI-H226 lung
[32] = tested on: M14 melanoma
[33] = tested on: SF-268 CNS
[34] = tested on: SK-OV-3 ovarian
[35] = tested on: HL-60(TB) leukemia
[36] = tested on: OVCAR-8 ovarian
[37] = tested on: A498 renal
[38] = tested on: PC-3 prostate
[39] = tested on: NCI-H23 lung
[40] = tested on: DU-145 prostate
[41] = tested on: OVCAR-4 ovarian
[42] = tested on: CAKI-1 renal
[43] = tested on: U251 glioblastoma
[44] = tested on: T-47D breast
[45] = tested on: EKVX NSCLC
[46] = tested on: SK-MEL-28 melanoma
[47] = tested on: NCI-H522 lung
[48] = tested on: BT-549 breast
[49] = tested on: UACC-62 melanoma
[50] = tested on: MDA-MB-468 breast
[51] = tested on: RXF 393 renal
[52] = tested on: SNB-75 CNS
[53] = tested on: SF-295 CNS
[54] = tested on: COLO 205 colon
[55] = tested on: HOP-92 NSCLC

Compound: CC1=C(CO)C2=C(C)C3(CC3)[C@@](C)(O)C(=O)C2=C1
- GI50 [1]: 317 nM
- TGI [1]: 1240 nM
- GI50 [2]: 110 nM
- TGI [2]: 240 nM
- GI50 [3]: 188 nM
- TGI [3]: 365 nM
- GI50 [4]: 214 nM
- TGI [4]: 404 nM
- GI50 [5]: 216 nM
- TGI [5]: 465 nM
- GI50 [6]: 147 nM
- TGI [6]: 336 nM
- GI50 [7]: 159 nM
- TGI [7]: 316 nM
- GI50 [8]: 182 nM
- TGI [8]: 369 nM
- GI50 [9]: 1160 nM
- TGI [9]: 3150 nM
- GI50 [10]: 184 nM
- TGI [10]: 395 nM
- GI50 [11]: 231 nM
- TGI [11]: 761 nM
- GI50 [12]: 166 nM
- TGI [12]: 376 nM
- GI50 [13]: 163 nM
- TGI [13]: 447 nM
- GI50 [14]: 222 nM
- TGI [14]: 428 nM
- GI50 [15]: 184 nM
- TGI [15]: 496 nM
- GI50 [16]: 325 nM
- TGI [16]: 1070 nM
- GI50 [17]: 1490 nM
- TGI [17]: 2830 nM
- GI50 [18]: 5960 nM
- TGI [18]: 18000 nM
- GI50 [19]: 152 nM
- TGI [19]: 296 nM
- GI50 [20]: 1760 nM
- TGI [20]: 3480 nM
- GI50 [21]: 213 nM
- TGI [21]: 519 nM
- GI50 [22]: 96.2 nM
- TGI [22]: 527 nM
- GI50 [23]: 203 nM
- TGI [23]: 473 nM
- GI50 [24]: 152 nM
- TGI [24]: 312 nM
- GI50 [25]: 237 nM
- TGI [25]: 392 nM
- GI50 [26]: 171 nM
- TGI [26]: 361 nM
- GI50 [27]: 173 nM
- TGI [27]: 313 nM
- GI50 [28]: 1400 nM
- TGI [28]: 3360 nM
- GI50 [29]: 180 nM
- TGI [29]: 381 nM
- GI50 [30]: 43.7 nM
- TGI [30]: 174 nM
- GI50 [31]: 297 nM
- TGI [31]: 793 nM
- GI50 [32]: 234 nM
- TGI [32]: 576 nM
- GI50 [33]: 143 nM
- TGI [33]: 318 nM
- GI50 [34]: 179 nM
- TGI [34]: 390 nM
- GI50 [35]: 179 nM
- TGI [35]: 334 nM
- GI50 [36]: 219 nM
- TGI [36]: 527 nM
- GI50 [37]: 50.8 nM
- TGI [37]: 367 nM
- GI50 [38]: 186 nM
- TGI [38]: 404 nM
- GI50 [39]: 53.9 nM
- TGI [39]: 181 nM
- GI50 [40]: 46.8 nM
- TGI [40]: 305 nM
- GI50 [41]: 201 nM
- TGI [41]: 392 nM
- GI50 [42]: 178 nM
- TGI [42]: 372 nM
- GI50 [43]: 203 nM
- TGI [43]: 410 nM
- GI50 [44]: 159 nM
- TGI [44]: 423 nM
- GI50 [45]: 203 nM
- TGI [45]: 452 nM
- GI50 [46]: 251 nM
- TGI [46]: 624 nM
- GI50 [47]: 116 nM
- TGI [47]: 244 nM
- GI50 [48]: 132 nM
- TGI [48]: 269 nM
- GI50 [49]: 394 nM
- TGI [49]: 1520 nM
- GI50 [50]: 45.1 nM
- TGI [50]: 125 nM
- GI50 [51]: 16.7 nM
- TGI [51]: 35.8 nM
- GI50 [52]: 119 nM
- TGI [52]: 250 nM
- GI50 [53]: 185 nM
- TGI [53]: 374 nM
- GI50 [54]: 132 nM
- TGI [54]: 272 nM
- GI50 [55]: 124 nM
- TGI [55]: 445 nM
